Data taken from patent US20140107109A1, “AMINO-DIHYDROTHIAZINE AND AMINO-DIOXIDO DIHYDROTHIAZINE COMPOUNDS AS BETA-SECRETASE ANTAGONISTS AND METHODS OF USE” (Amgen Inc., priority 2012, published 2014).
Where two headings read alike, the source gives them in different places.

Legend:
[1] = target: Beta Secretase enzyme (BACE1) (Homo sapiens, UniProt P56817); test: In vitro enzymatic BACE FRET assay; type: biochemical; conditions: read-out: BACE1 FRET assay IC50
Outline: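 BACE1 cleavage of a 50 nM fluorophore/quencher peptide FRET substrate ran for one hour in 0.05 M acetate pH 4.2, 10% DMSO, 100 uM genapol. Tris buffer raised pH to neutrality to stop the reaction before fluorescence was read (excitation 488 nm, […]).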

[2] = tested on: Aβ40 in conditioned medium of cells stably expressing Amyloid Precursor Protein (APP); test: In vitro BACE cell-based assay (HEK cell assay), Aβ40 sandwich ELISA; conditions: Homo sapiens, HEK293
Outline: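 APP-stably expressing cells (40K/well, grown 24 h in DMEM/10% FBS) were treated 24 h with compounds in 10-point dose response starting at 100 μM or 10 μM, 0.1% DMSO final. Secreted Aβ40 was measured by sandwich ELISA (pAb40 capture, biotinylated 6E10 detection, europium time-resolved fluorescence); IC50 from percent inhibition.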

Cathepsin D (Cat D) = target: T1, Cathepsin D (Cat D) (Homo sapiens, UniProt P07339); test: In vitro enzymatic Cathepsin D (Cat D) FRET assay; type: biochemical; conditions: read-out: CatD IC50
T1 construct: Recombinant Cat D was expressed in CHO cells; made in house; host or cells: CHO cells
Outline: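 Recombinant Cat D expressed in CHO cells, used at 9 nM and pre-incubated one hour with serially diluted inhibitor in DMSO. Peptide substrate carries a fluorophore and quencher flanking the cleavage site; reaction stopped with Tris buffer raising pH to neutrality, then fluorescence read.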

T1 sequence (P07339 65-412, species assumed): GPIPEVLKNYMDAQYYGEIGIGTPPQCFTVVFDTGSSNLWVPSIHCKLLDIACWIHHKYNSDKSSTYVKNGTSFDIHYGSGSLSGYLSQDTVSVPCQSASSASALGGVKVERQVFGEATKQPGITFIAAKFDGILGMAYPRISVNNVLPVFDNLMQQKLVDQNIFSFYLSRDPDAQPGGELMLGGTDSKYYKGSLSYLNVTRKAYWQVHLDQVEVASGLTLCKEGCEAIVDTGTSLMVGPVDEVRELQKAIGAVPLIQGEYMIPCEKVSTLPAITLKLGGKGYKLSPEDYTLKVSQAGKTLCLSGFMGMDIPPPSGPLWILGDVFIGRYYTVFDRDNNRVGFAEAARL
Sequence of Beta Secretase enzyme (BACE1) (P56817 46-501): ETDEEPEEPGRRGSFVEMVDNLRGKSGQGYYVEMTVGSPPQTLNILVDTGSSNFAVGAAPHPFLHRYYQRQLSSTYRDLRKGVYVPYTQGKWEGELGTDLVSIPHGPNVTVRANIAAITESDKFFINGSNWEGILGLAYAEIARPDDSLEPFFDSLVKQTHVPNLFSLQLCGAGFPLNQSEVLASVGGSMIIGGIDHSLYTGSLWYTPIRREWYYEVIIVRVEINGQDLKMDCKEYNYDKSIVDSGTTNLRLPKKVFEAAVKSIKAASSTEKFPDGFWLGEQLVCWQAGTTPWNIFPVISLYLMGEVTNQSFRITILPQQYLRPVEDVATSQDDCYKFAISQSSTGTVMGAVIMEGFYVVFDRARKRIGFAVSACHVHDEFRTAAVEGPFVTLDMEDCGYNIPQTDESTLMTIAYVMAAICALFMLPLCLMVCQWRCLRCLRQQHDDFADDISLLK

IC50 (Cathepsin D (Cat D)) [µM]	IC50 ([1]; average IC50, enzyme assay) [µM]	IC50 ([2]; average IC50, cell assay) [µM]	Structure (SMILES)	IC50 [1] [µM]	IC50 [2] [µM]
1450	0.031	0.0115	CC1(C)C(N)=N[C@](C)(c2cc(Nc3nccc4cc(OCCF)cnc34)ccc2F)CS1(=O)=O [Example 421, N-(3-((3R)-5-amino-3,6,6-trimethyl-1,1-dioxido-3,6-dihydro-2H-1,4-thiazin-3-yl)-4-fluorophenyl)-3-(2-fluoroethoxy)-1,7-naphthyridin-8-amine]		
958	0.0184	0.029	CCOc1cnc2c(Nc3ccc(F)c([C@]4(C)CS(=O)(=O)C(C)(C)C(N)=N4)c3)nccc2c1 [Example 422, N-(3-((3R)-5-amino-3,6,6-trimethyl-1,1-dioxido-3,6-dihydro-2H-1,4-thiazin-3-yl)-4-fluorophenyl)-3-ethoxy-1,7-naphthyridin-8-amine]		
476	0.0012	0.1	CC1(C)C(N)=N[C@](CF)(c2cc(Nc3ncc(F)c4cc(OCC5CC5)cnc34)ccc2F)CS1(=O)=O [Example 431, N-(3-((3S)-5-amino-3-(fluoromethyl)-6,6-dimethyl-1,1-dioxido-3,6-dihydro-2H-1,4-thiazin-3-yl)-4-fluorophenyl)-3-(cyclopropylmethoxy)-5-fluoro-1,7-naphthyridin-8-amine]		
312	0.00247	0.187	CC1(C)C(N)=N[C@](CF)(c2cc(Nc3ncc(F)c4cc(OCC(F)(F)F)cnc34)ccc2F)CS1(=O)=O [Example 432, N-(3-((3S)-5-amino-3-(fluoromethyl)-6,6-dimethyl-1,1-dioxido-3,6-dihydro-2H-1,4-thiazin-3-yl)-4-fluorophenyl)-5-fluoro-3-(2,2,2-trifluoroethoxy)-1,7-naphthyridin-8-amine]		
111	0.0006	0.0314	CC1(C)C(N)=N[C@](CF)(c2cc(Nc3ncc(F)c4cc(O)cnc34)ccc2F)CS1(=O)=O [Example 433, 8-((3-((3S)-5-amino-3-(fluoromethyl)-6,6-dimethyl-1,1-dioxido-3,6-dihydro-2H-1,4-thiazin-3-yl)-4-fluorophenyl)amino)-5-fluoro-1,7-naphthyridin-3-ol]		
32.3	0.0015	0.341	CC1(C)C(N)=N[C@](CF)(c2cc(Nc3ncc(F)c4cc(OCC5CCC5)cnc34)ccc2F)CS1(=O)=O [Example 434, N-(3-((3S)-5-amino-3-(fluoromethyl)-6,6-dimethyl-1,1-dioxido-3,6-dihydro-2H-1,4-thiazin-3-yl)-4-fluorophenyl)-3-(cyclobutylmethoxy)-5-fluoro-1,7-naphthyridin-8-amine]		
> 400	0.0016	0.049	CCOc1cnc2c(Nc3ccc(F)c([C@]4(CF)CS(=O)(=O)C(C)(C)C(N)=N4)c3)ncc(F)c2c1 [Example 435, N-(3-((3S)-5-amino-3-(fluoromethyl)-6,6-dimethyl-1,1-dioxido-3,6-dihydro-2H-1,4-thiazin-3-yl)-4-fluorophenyl)-3-ethoxy-5-fluoro-1,7-naphthyridin-8-amine]		
61.6	0.0043	0.626	CC(C)COc1cnc2c(Nc3ccc(F)c([C@]4(CF)CS(=O)(=O)C(C)(C)C(N)=N4)c3)ncc(F)c2c1 [Example 436, N-(3-((3S)-5-amino-3-(fluoromethyl)-6,6-dimethyl-1,1-dioxido-3,6-dihydro-2H-1,4-thiazin-3-yl)-4-fluorophenyl)-5-fluoro-3-(2-methylpropoxy)-1,7-naphthyridin-8-amine]		
> 1.65	0.00223	0.0643	CC1(C)C(N)=N[C@](CF)(c2cc(Nc3ncc(F)c4cc(OCC(F)F)cnc34)ccc2F)CS1(=O)=O [Example 437, N-(3-((3S)-5-amino-3-(fluoromethyl)-6,6-dimethyl-1,1-dioxido-3,6-dihydro-2H-1,4-thiazin-3-yl)-4-fluorophenyl)-3-(2,2-difluoroethoxy)-5-fluoro-1,7-naphthyridin-8-amine]		
> 1.65	0.00382	0.198	CCOc1cnc2c(Nc3ccc(F)c([C@]4(CF)CS(=O)(=O)C5(CCC5)C(N)=N4)c3)ncc(F)c2c1 [Example 438, N-(3-((7S)-9-amino-7-(fluoromethyl)-5,5-dioxido-5-thia-8-azaspiro[3.5]non-8-en-7-yl)-4-fluorophenyl)-3-ethoxy-5-fluoro-1,7-naphthyridin-8-amine]		

Second part, the molecule before the results:

Structure (SMILES)	IC50 (Cathepsin D (Cat D)) [µM]	IC50 ([1]; average IC50, enzyme assay) [µM]	IC50 ([2]; average IC50, cell assay) [µM]	IC50 [1] [µM]	IC50 [2] [µM]
C[C@@]1(c2cc(NC(=O)c3ccc(Cl)cn3)ccc2F)CS(=O)(=O)C2(CCC2)C(N)=N1 [Example 416, N-(3-((7R)-9-amino-7-methyl-5,5-dioxido-5-thia-8-azaspiro[3.5]non-8-en-7-yl)-4-fluorophenyl)-5-chloro-2-pyridinecarboxamide]	59.5			0.00236	0.0059
NC1=N[C@](CF)(c2cc(N)ccc2F)CS(=O)(=O)C12CCC2 [Example 417, (7S)-7-(5-amino-2-fluorophenyl)-7-(fluoromethyl)-5-thia-8-azaspiro[3.5]non-8-en-9-amine 5,5-dioxide]	69.7			2.1	3.65
NC1=N[C@@](CF)(c2cc(Br)ccc2F)CS(=O)(=O)C12CCC2 [Example 418, (7R)-7-(5-bromo-2-fluorophenyl)-7-(fluoromethyl)-5-thia-8-azaspiro[3.5]non-8-en-9-amine 5,5-dioxide]	> 400	> 40	> 15.6		
CC1(C)C(N)=N[C@](C)(c2cc(Nc3nccc4cc(OCC(F)(F)F)cnc34)ccc2F)CS1(=O)=O [Example 419, N-(3-((3R)-5-amino-3,6,6-trimethyl-1,1-dioxido-3,6-dihydro-2H-1,4-thiazin-3-yl)-4-fluorophenyl)-3-(2,2,2-trifluoroethoxy)-1,7-naphthyridin-8-amine]	631	0.00451	0.026		
CC1(C)C(N)=N[C@](C)(c2cc(Nc3nccc4cc(OCC#N)cnc34)ccc2F)CS1(=O)=O [Example 420, ((8-((3-((3R)-5-amino-3,6,6-trimethyl-1,1-dioxido-3,6-dihydro-2H-1,4-thiazin-3-yl)-4-fluorophenyl)amino)-1,7-naphthyridin-3-yl)oxy)acetonitrile]	1260	0.00485	0.0054		
C[C@]1(F)C(N)=N[C@](C)(c2cc(Nc3nccc4nc(C(F)(F)F)cnc34)ccc2F)CS1(=O)=O [Example 423, N-(3-((3R,6R)-5-amino-6-fluoro-3,6-dimethyl-1,1-dioxido-3,6-dihydro-2H-1,4-thiazin-3-yl)-4-fluorophenyl)-2-(trifluoromethyl)pyrido[3,4-b]pyrazin-5-amine]	> 133	0.0013	0.735		
COc1ncc(NC(=O)c2ccccn2)cc1[C@]1(C)CS(=O)(=O)C(C)(C)C(N)=N1 [Example 424, N-(5-((3R)-5-amino-3,6,6-trimethyl-1,1-dioxido-3,6-dihydro-2H-1,4-thiazin-3-yl)-6-methoxy-3-pyridinyl)-2-pyridinecarboxamide]	567	0.298	0.131		
CC1(C)C(N)=N[C@](C)(c2cc(Sc3ncccc3F)ccc2F)CS1(=O)=O [Example 439, (5R)-5-(2-fluoro-5-((3-fluoro-2-pyridinyl)sulfanyl)phenyl)-2,2,5-trimethyl-5,6-dihydro-2H-1,4-thiazin-3-amine 1,1-dioxide]	215	0.375	0.99		
CC1(C)C(N)=N[C@](C)(c2cc(Sc3cc(C#N)ccn3)ccc2F)CS1(=O)=O [Example 440, 2-((3-((3R)-5-amino-3,6,6-trimethyl-1,1-dioxido-3,6-dihydro-2H-1,4-thiazin-3-yl)-4-fluorophenyl)sulfanyl)-4-pyridinecarbonitrile]	218	0.566	0.679		
CC1(C)C(N)=N[C@](C)(c2cc(Nc3nccc4nc(OCCF)cnc34)ccc2F)CS1(=O)=O [Example 441, N-(3-((3R)-5-amino-3,6,6-trimethyl-1,1-dioxido-3,6-dihydro-2H-1,4-thiazin-3-yl)-4-fluorophenyl)-2-(2-fluoroethoxy)pyrido[3,4-b]pyrazin-5-amine]	407	0.00534	0.0138		
CC1(C)C(N)=N[C@](C)(c2cc(Nc3nccc4nc(OCC(F)(F)F)cnc34)ccc2F)CS1(=O)=O [Example 442, N-(3-((3R)-5-amino-3,6,6-trimethyl-1,1-dioxido-3,6-dihydro-2H-1,4-thiazin-3-yl)-4-fluorophenyl)-2-(2,2,2-trifluoroethoxy)pyrido[3,4-b]pyrazin-5-amine]	389	0.00322	0.0319		
CC1(C)C(N)=N[C@](C)(c2cc(Nc3nccc4nc(OCC#N)cnc34)ccc2F)CS1(=O)=O [Example 443, ((5-((3-((3R)-5-amino-3,6,6-trimethyl-1,1-dioxido-3,6-dihydro-2H-1,4-thiazin-3-yl)-4-fluorophenyl)amino)pyrido[3,4-b]pyrazin-2-yl)oxy)acetonitrile]	346	0.00287	0.004		
